Laboratory results as given in US6403602B1 (priority 1997, dated 2002).

Legend:
[1] = test system: electrically stimulated guinea pig ileum; assay: tissue or blood; type: cell-based
[2] = target: mu opioid receptors (Cavia porcellus, UniProt A0ACM8Q262); type: binding, guinea pig
[3] = target: T1, kappa receptors (Cavia porcellus, UniProt P41144); type: cell-based, guinea pig
T1 construct: The longitudinal muscle with the myenteric plexus attached was gently separated from the underlying circular muscle; from tissue; host or cells: guinea pig ileum longitudinal muscle with myenteric plexus
T1 sequence (P41144 whole entry): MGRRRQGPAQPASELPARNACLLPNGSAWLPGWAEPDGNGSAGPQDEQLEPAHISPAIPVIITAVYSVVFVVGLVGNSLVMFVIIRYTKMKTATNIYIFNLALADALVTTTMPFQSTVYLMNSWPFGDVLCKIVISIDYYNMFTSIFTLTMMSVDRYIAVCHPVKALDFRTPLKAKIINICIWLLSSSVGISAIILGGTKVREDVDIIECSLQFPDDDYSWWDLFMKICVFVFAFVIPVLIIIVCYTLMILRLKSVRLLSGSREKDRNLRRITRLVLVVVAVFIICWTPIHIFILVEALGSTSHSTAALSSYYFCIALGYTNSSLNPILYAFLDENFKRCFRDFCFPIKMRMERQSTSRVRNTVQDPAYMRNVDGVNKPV

[4] = test system: kappa3 receptors; type: binding, guinea pig
[5] = test system: morphine withdrawal signs; assay: Single dose substitution and precipitated morphine withdrawal in morphine dependent Rhesus monkeys; conditions: sc, M3A6S 2.5 and 10.0 mg/kg, DM3A6S 3.0, 12.0 and […]
[6] = test system: κ2 sites; type: binding, guinea pig
[7] = test system: nociception (tail-flick); assay: Tail-flick test after subcutaneous administration; conditions: rat tail-flick, sc, dose equimolar to 5 mg/kg morphine
[8] = target: T2, delta receptors (Cavia porcellus, UniProt A0A286XTF2); assay: biochemical; type: binding, guinea pig
T2 construct: The brains were then homogenized in 50 mM Tris HCl, buffer pH 7.7, using a Polytron; from tissue; host or cells: guinea pig brain homogenate (membrane pellet)
T2 sequence (A0A286XTF2 1-366): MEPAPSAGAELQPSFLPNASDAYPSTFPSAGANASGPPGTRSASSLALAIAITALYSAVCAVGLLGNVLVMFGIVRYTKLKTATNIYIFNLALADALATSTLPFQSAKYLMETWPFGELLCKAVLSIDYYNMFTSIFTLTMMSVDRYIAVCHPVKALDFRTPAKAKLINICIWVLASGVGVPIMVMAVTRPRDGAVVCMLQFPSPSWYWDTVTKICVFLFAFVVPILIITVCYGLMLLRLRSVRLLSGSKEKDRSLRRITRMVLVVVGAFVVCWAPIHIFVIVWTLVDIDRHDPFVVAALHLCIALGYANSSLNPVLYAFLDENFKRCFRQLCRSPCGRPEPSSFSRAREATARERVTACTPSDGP

[9] = target: T3, kappa1 sites (Cavia porcellus, UniProt P41144); assay: biochemical; type: binding, guinea pig
T3 construct: The brains were then homogenized in 50 mM Tris HCl, buffer pH 7.7, using a Polytron; from tissue; host or cells: guinea pig brain homogenate (membrane pellet)
T3 sequence (P41144 whole entry): as the sequence (P41144 whole entry) above

[10] = test system: mu receptors; type: cell-based, guinea pig
[11] = test system: nociception (tail-flick); assay: Tail-flick test after intracerebroventricular administration; type: in vivo; conditions: rat tail-flick, icv, molar dose equivalent to the lower dose of morphine
[12] = test system: electrically stimulated mouse vas deferens; assay: tissue or blood; type: cell-based; conditions: Mus musculus, read-out: Mouse vas deferens maximum inhibition

Chain of mu opioid receptors (A0ACM8Q262 1-400): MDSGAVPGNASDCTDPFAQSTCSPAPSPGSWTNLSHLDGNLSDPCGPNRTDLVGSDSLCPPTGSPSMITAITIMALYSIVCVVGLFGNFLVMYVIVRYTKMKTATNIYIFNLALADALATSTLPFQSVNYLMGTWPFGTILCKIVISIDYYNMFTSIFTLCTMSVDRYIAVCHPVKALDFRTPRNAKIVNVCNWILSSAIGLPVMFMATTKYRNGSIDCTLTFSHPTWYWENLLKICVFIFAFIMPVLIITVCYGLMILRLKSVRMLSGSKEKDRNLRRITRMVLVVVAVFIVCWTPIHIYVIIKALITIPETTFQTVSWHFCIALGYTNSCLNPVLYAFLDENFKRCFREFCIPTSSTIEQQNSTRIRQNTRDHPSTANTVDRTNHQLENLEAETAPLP

Compound: CC(=O)Oc1ccc2c3c1O[C@H]1[C@@H](OS(=O)(=O)O)C=C[C@H]4[C@@H](C2)N(C)CC[C@@]341 [NIDA # 20,264, 3-O-Acetylmorphine-6-O-sulfate]
- Guinea pig ileum, result in words [1]: inhibited electrically induced twitches
- IC50 ([1]; Cavia porcellus, read-out: Guinea Pig Ileum IC50 (nM)): 25.9 ± 5.3 nM
- Ki mu/Ki delta [2]: 0.0026
- affinity to mu receptors in words [2]: greater affinity than that of morphine
- selectivity for mu-receptors, greater than morphine [2]: 3 fold
- Guinea Pig Ileum DR with Nor-BNI [3]: 1.39 ± 0.14
- Guinea Pig Ileum Ke of Nor-BNI [3]: 54.42 ± 19.6
- Guinea Pig Ileum Ratio (Nor-BNI) [3]: 0.001
- affinity to kappa3 receptors in words [4]: greater affinity than that of morphine
- selectivity for kappa3 receptors, greater than morphine [4]: 2.2 fold
- Ki ([4]; read-out: Ki κ3 [^3H]NalBzoH): 5.5 nM
- substitution for morphine / withdrawal, in words [5]: did not substitute for morphine, nor did it exacerbate withdrawal
- IC50 [6]: > 10000 nM
- analgesic activity in words [7]: analgesic profile similar to that of M6S
- duration of maximal analgesic effect [7]: 4 h
- Ki [8]: 308 nM
- Ki [9]: 1160 nM
- binding to kappa1 sites in words [9]: weakly
- Guinea Pig Ileum DR with CTAP [10]: 5.40 ± 0.18
- Guinea Pig Ileum Ke of CTAP [10]: 22.73 ± 0.91
- Guinea Pig Ileum Ratio (CTAP) [10]: 0.851
- duration of maximal analgesia [11]: 90 min
- time to maximal analgesic effect [11]: 10 min
- inhibition at 200 µM [12]: 30%
